This is an account of results in ChEMBL document CHEMBL1126819, “Amino acid bioisosteres: design of 2-quinolone derivatives as glycine-site N-methyl-D-aspartate receptor antagonists” (Bioorg Med Chem Lett, 1993).

One series deals with Glutamate NMDA receptor. Format: cell membranes, Rattus norvegicus, Membrane.
Series [1] in a line: Dissociation constant pKa was determined. Format: physicochemical.
For a further series, the species on record is Rattus norvegicus. Briefly: Tested for ability to inhibit NMDA-induced depolarizations in rat cortical slices. In kind it is functional.

Description for Glutamate NMDA receptor: Displacement of [3H]L-689,560 from NMDA receptor glycine site of rat brain membranes

In the case of `COC(=O)c1c(O)c2ccc(Cl)cc2[nH]c1=O`, the IC50 – broadly, the concentration at which inhibition is half-maximal – on Glutamate NMDA receptor stood at 6500 nM.

Compound `C[C@@H]1CN(O)C(=O)[C@@H]1N` showed an IC50 on Glutamate NMDA receptor of 2700 nM.

Take `O=C(c1ccccc1)c1c(O)nc2cc(Cl)ccc2c1O`: at Glutamate NMDA receptor, the IC50 came out at 3200 nM.

Take `CCc1cc(Cl)cc2nc(O)c(-c3ccccc3)c(O)c12`: the IC50 on Glutamate NMDA receptor amounted to 6.9 nM.

Take `O=c1[nH]c2cc(Cl)ccc2c(O)c1-c1ccccc1`: in series [1], the pKa (commonly the negative logarithm of the acid dissociation constant) is 5.4. Moreover, in the series filed under Rattus norvegicus, the Kb was 880 nM. In addition, the IC50 at Glutamate NMDA receptor was determined as 170 nM.

Take `O=C(O)c1cc(O)c2c(I)cc(Cl)cc2n1`: the Kb in the series listed under Rattus norvegicus stood at 410 nM. Moreover, inhibition at Glutamate NMDA receptor was half-maximal at 14 nM (IC50).

In the case of `O=C(O)c1cc(O)c2ccc(Cl)cc2n1` [7-CHLOROKYNURENIC ACID], in the series listed under Rattus norvegicus, the Kb is 7000 nM.

As for `O=[N+]([O-])c1cc([N+](=O)[O-])c2nc(O)c(O)nc2c1`, the pKa in series [1] turned out to be 6.5. In the series filed under Rattus norvegicus, this compound had a Kb of 1200 nM. At Glutamate NMDA receptor, this compound registered an IC50 of 170 nM.

For `O=C1Nc2cc(Cl)ccc2CC1[N+](=O)[O-]` (stereo not drawn), in the series filed under Rattus norvegicus, the Kb came out at 6700 nM. Further, the IC50 on Glutamate NMDA receptor was 410 nM.

`Oc1nc2cc(Cl)cc(Cl)c2c(O)c1-c1ccccc1` yielded an IC50 on Glutamate NMDA receptor of 97 nM.

Consider `O=C(Nc1ccccc1)N[C@H]1C[C@H](C(=O)O)Nc2cc(Cl)cc(Cl)c21`, for which the pKa in series [1] was ~4. The same compound registered a Kb in the series filed under Rattus norvegicus of 110 nM. Besides, on Glutamate NMDA receptor, the IC50 turned out to be 4 nM.

For `Oc1nc2cc(Cl)ccc2c(O)c1C1CCCCC1`, the IC50 against Glutamate NMDA receptor was ~100000 nM.

`O=C(O)c1cc(O)c2c(Cl)cc(Cl)cc2n1` gave a Kb in the series listed under Rattus norvegicus of 1900 nM. The half-inhibitory concentration (IC50) at Glutamate NMDA receptor was 64 nM.

As to `O=c1cc(O)c2ccc(Cl)cc2[nH]1`, the IC50 against Glutamate NMDA receptor is > 300000 nM.
